What all share (assay): NCI anticancer screen, dose series, 48 h
The subject of test [1] is 786-0.
Test [2] has as its system A498.
Test [3] has as its system A549.
For test [4], the system named is COLO 205.
Test [5] deals with HCT-116.
The test system of test [6] is HCT-15.
Test [7] concerns M14.
The subject of test [8] is NCI-H460.
Test [9] concerns OVCAR-4.
Test [10] has as its system OVCAR-5.
Test [11] deals with PC-3.
Test [12] has as its system SF-539.
The test system of test [13] is SK-MEL-2.
The subject of test [14] is SK-MEL-5.
The subject of test [15] is SNB-75.
Test [16] has as its system SR.
In test [17] the test system is SW-620.
The subject of test [18] is U-251.
The test system of test [19] is UO-31.
For test [20], the system named is RPMI-8226.

Several values for one entry are separate records, joined by “and”; a condition that tells them apart may be missing. Identical values can stand only once.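 Dose response: 5 concentrations. Exposure: 48 h. Format: 96-well plates. Endpoint: linear interpolation; highest concentration if not reached. GI50 = concentration required for 50% inhibition of growth.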 Activity calls are given as the source filed them. Cut-off read from the data, not from the text of the source: active = GI50 up to about 1.1 µM and inactive = higher.

For `COC1OC(C(=O)CP(=O)(OC)OC)C(OCc2ccccc2)C(OCc2ccccc2)C1OCc1ccccc1` (configuration not stated), the GI50 was 17.6 µM (inactive) and 17.3 µM (inactive) in test [1]; 14.1 µM (inactive) in test [2]; 15.3 µM (inactive) and 15.5 µM (inactive) in test [3]; 18.5 µM (inactive) and 18.2 µM (inactive) in test [4]; 16.6 µM (inactive) and 15.5 µM (inactive) in test [5]; 15.5 µM and 17.7 µM in test [6]. The GI50 in test [7] was 15.3 µM (inactive) and 16.6 µM (inactive); in [8] it was 15 µM (inactive) and 15.9 µM (inactive); in [9], 14.7 µM (inactive) and 20.7 µM (inactive); in [10], 15.4 µM (inactive) and 17.4 µM (inactive); in test [11] it was 15.4 µM (inactive) and 14.2 µM (inactive); in test [12], 17.3 µM (inactive) and 16.9 µM (inactive). In addition, the GI50 in [13] was 16.5 µM (inactive) and 17.1 µM (inactive); in test [14], 14.8 µM (inactive) and 15 µM (inactive); in test [15], 14.6 µM (inactive) and 16 µM (inactive); in test [16] it was 16.4 µM (inactive) and 25.4 µM (inactive); in [17] it was 20.7 µM (inactive) and 34.3 µM (inactive); in test [18] it was 16.7 µM (inactive) and 15.6 µM (inactive). Moreover, the GI50 in [19] was 11.2 µM (inactive) and 17.1 µM (inactive).

On to `[N-]=[N+]=Nc1cc(=O)[nH]nc1-c1ccccc1`, for which the GI50 in [1] is > 100 µM (inactive); in [2] it was > 100 µM (inactive); in test [3], > 100 µM (inactive); in test [4], > 100 µM (inactive); in [5], > 100 µM (inactive); in [6], above 100 µM. The GI50 in test [7], in test [8], in test [9], in test [11], in test [20] and in test [12] was > 100 µM (inactive) each time. Further, the GI50 was 61.4 µM (inactive) in test [15]; > 100 µM (inactive) in test [16]; > 100 µM (inactive) in [17]; > 100 µM (inactive) in [18]; > 100 µM (inactive) in [19].

On to `CC(C)(C)OC(=O)N1CCc2[nH][nH]c(=O)c2C1`, for which the GI50 in test [1] is > 100 µM (inactive); in [2], > 100 µM (inactive); in test [3] it was > 100 µM (inactive); in test [4], > 100 µM (inactive); in test [5], > 100 µM (inactive); in test [6], above 100 µM. Besides, the GI50 in [7], in [8], in [9], in [11], in test [20] and in [12] was > 100 µM (inactive) in each case. The GI50 in [16], in test [17], in test [18] and in test [19] was > 100 µM (inactive) in each case.

On to `COc1ccc(C(C#N)NC23CC4CC(CC(C4)C2)C3)cc1` (configuration not stated), for which the GI50 in test [1] was > 100 µM (inactive); in test [3] it was > 100 µM (inactive); in [4], > 100 µM (inactive); in test [5] it was > 100 µM (inactive); in [6], above 100 µM; in test [7], > 100 µM (inactive). The GI50 in test [8], in test [9], in test [10], in [11], in [20] and in [12] was > 100 µM (inactive) in each case. Moreover, the GI50 in test [13], in test [14], in test [15], in test [16], in [17] and in test [18] was > 100 µM (inactive) each time. For the same compound, the GI50 in test [19] was > 100 µM (inactive).

As for `CCOC(=O)c1nc2c(Cl)c3ncccc3cc2[nH]c1=O`, the GI50 was 35.6 µM (inactive) in test [1]; 79.6 µM (inactive) in [2]; 28.4 µM (inactive) in test [3]; > 100 µM (inactive) in [4]; 31.8 µM (inactive) in [5]; 19 µM in test [6]. Further, the GI50 in [7] is 27.9 µM (inactive); in [8], 16.8 µM (inactive); in [9] it was 49.1 µM (inactive); in [10], 61.7 µM (inactive); in [11], 30.9 µM (inactive); in test [12], 34.8 µM (inactive). The GI50 in test [13] is 22.4 µM (inactive); in [14], 9.04 µM (inactive); in test [15] it was 17.2 µM (inactive); in test [16], 8.73 µM (inactive); in test [17], 43.3 µM (inactive); in test [18], 23 µM (inactive). In [19], the GI50 is 55.5 µM (inactive).

For the compound `NS(=O)(=O)c1ccc2c(c1)OCCOCCOCCOCCO2`, the GI50 in test [1] is > 100 µM (inactive); in test [2], > 100 µM (inactive); in test [3], > 100 µM (inactive); in [4] it was > 100 µM (inactive); in test [5], > 100 µM (inactive); in test [6] it was above 100 µM. In addition, the GI50 in [7], in test [8], in [11], in test [20], in [12] and in test [14] was > 100 µM (inactive) in each case. Moreover, the GI50 in test [15], in test [16], in [17] and in test [19] was > 100 µM (inactive) throughout.

Take `Cc1cs/c(=N\C(P(=O)(O)O)P(=O)(O)O)n1C`: the GI50 in [1] is 90.8 µM (inactive); in test [2] it was > 100 µM (inactive); in test [3], > 100 µM (inactive); in [4], > 100 µM (inactive); in test [5], > 100 µM (inactive); in test [6], above 100 µM. Further, the GI50 in [7], in test [8], in [10], in test [11], in [20] and in test [12] was > 100 µM (inactive) in each case. In addition, the GI50 was 86.5 µM (inactive) in test [14]; > 100 µM (inactive) in test [15]; > 100 µM (inactive) in test [16]; > 100 µM (inactive) in test [17]; > 100 µM (inactive) in test [18]; > 100 µM (inactive) in test [19].

As for `CN(C)c1ccc(C=C2C(=O)N(c3ccccc3)N(c3ccccc3)C2=O)cc1`, the GI50 in [1] was 71.1 µM (inactive); in test [2] it was > 100 µM (inactive); in test [3], 78.9 µM (inactive); in [4], > 100 µM (inactive); in test [5], > 100 µM (inactive); in test [6], above 100 µM. The GI50 in test [7] was > 100 µM (inactive); in test [10], > 100 µM (inactive); in [11], 78 µM (inactive); in test [20] it was 69 µM (inactive); in test [13], > 100 µM (inactive); in [14] it was > 100 µM (inactive). Moreover, the GI50 was 53.7 µM (inactive) in test [15]; > 100 µM (inactive) in test [16]; > 100 µM (inactive) in test [17]; 37 µM (inactive) in test [18]; > 100 µM (inactive) in [19].

For `C[C@@H](c1ccccc1)N1CN(C(=O)OCc2ccccc2)C(CO)C1=O` (some centres not stated), the GI50 in test [1] was > 100 µM (inactive); in test [3], > 100 µM (inactive); in test [4], > 100 µM (inactive); in [5], > 100 µM (inactive); in [6] it was above 100 µM; in test [7], > 100 µM (inactive). The GI50 is > 100 µM (inactive) in [8]; > 100 µM (inactive) in [9]; > 100 µM (inactive) in test [10]; > 100 µM (inactive) in test [11]; 93.1 µM (inactive) in test [20]; > 100 µM (inactive) in test [12]. Moreover, the GI50 in test [13], in test [14], in [15], in test [16], in test [17] and in test [18] was > 100 µM (inactive) in each case.

With `Cc1ccc(C2=C(Cl)C(=O)C(c3ccc(C)cc3)=C(Cl)C2=O)cc1`, the GI50 in test [1] was > 100 µM (inactive); in test [2] it was > 100 µM (inactive); in test [3], > 100 µM (inactive); in [4], > 100 µM (inactive); in test [5], > 100 µM (inactive); in test [6] it was above 100 µM. Further, the GI50 in test [7], in [8], in [9], in test [10], in test [11] and in test [20] was > 100 µM (inactive) in each case. Also, the GI50 in test [12], in test [14], in test [15], in [16], in test [17] and in test [18] was > 100 µM (inactive) in each case. Moreover, the GI50 in test [19] is > 100 µM (inactive).

Turning to `CC(C)=CCC/C(C)=C\CC/C(C)=C/CO`, the GI50 in test [1] was 17.4 µM (inactive); in [3] it was > 100 µM (inactive); in [4] it was 40.1 µM (inactive); in test [5], 19.8 µM (inactive); in test [6], 40.1 µM; in test [7], 16.5 µM (inactive). The GI50 in test [8] was > 10 µM (inactive); in [9] it was 26.2 µM (inactive); in test [10], > 100 µM (inactive); in test [11], 41.4 µM (inactive); in test [20] it was 14.7 µM (inactive); in test [12], 21 µM (inactive). Moreover, the GI50 in [13] is 16.4 µM (inactive); in [14], 26.4 µM (inactive); in test [15], 31.9 µM (inactive); in [16] it was 21.4 µM (inactive); in test [17], 85.9 µM (inactive); in test [18] it was 17.6 µM (inactive). In addition, the GI50 in test [19] is 22.5 µM (inactive).

Source of the values: ChEMBL document CHEMBL1201862, “PubChem BioAssay data set” (2004).
